Source: patent publication US20080113073A1, “Hydroxydeoxybenzoins And The Use Thereof to Mask A Bitter Taste” (SYMRISE GMBH & CO. KG, priority 2005, published 2008)

What was measured:
[1] = test system: bitter impression of a caffeine solution; assay: Bitter reduction of a caffeine solution, rated by a group of experts (0 not bitter to 10 extremely bitter); assay type: in vivo; conditions: for Bitter impression (1-10) with: 500 ppm caffeine plus 100 ppm substance, 95% confidence intervals given as error; for % reduction in the bitter impression: 500 ppm caffeine, 100 ppm substance, calculated from average ratings without/with substance
Experimental: In order to quantify the reduction in the bitter impression, the bitterness of a caffeine solution comprising 500 ppm and of a sample comprising 500 ppm of caffeine and a variable amount of the compound of the example was determined by a group of experts (rating 0 [not bitter] to 10 [extremely bitter]). The evaluation was carried out by calculating the reduction (in %) in the bitter impression from the average values of the assessments of the caffeine solution or the solutions containing caffeine and compound of the example. 2,4-Dihydroxybenzoic acid (2,4-DHB) was used as comparison in accordance with U.S. Pat. No. 5,643,941.

[2] = test system: taste of caffeine; conditions: in vivo; cited from earlier work
[3] = test system: taste; conditions: studied within the context of various sweeteners; cited from earlier work
[4] = test system: sweet impression of a sucrose solution; assay: Enhancement of the sweet impression of a sucrose solution, rated by a group of experts (0 not sweet to 10 extremely sweet); assay type: in vivo
Experimental: In order to quantify the enhancement of the sweet impression, the sweetness of a sucrose solution comprising 5% and of a sample comprising 5% sucrose and an amount of compound 2 was determined by a group of experts (rating 0 [not sweet] to 10 [extremely sweet]). The evaluation was carried out by calculating the […] (in %) in the sweet impression from the average values of the assessments of the sucrose solution or of the solution comprising sucrose and compound 2.

[5] = test system: sweetness impression of sugared low-fat yoghurt; assay: Sweetness enhancement in low-fat yoghurt with 5% sugar, coded tasting by 16 testers (scale 0 to 10); assay type: in vivo
Excerpt: 5% sugar was stirred into a commercially available natural yoghurt (without additives) having a fat content of 0.1% (sample 1). 200 ppm of compound 2 (Example 2), which had previously been dissolved in a minimal amount of ethanol, were additionally incorporated into a sample 2. Samples 1 and 2 were presented in coded form, in a different but predetermined order, to 16 testers for tasting. The testers had to note the sweetness impression on a scale of from 0 (not present) to 10 (extreme sweetness). In addition, the testers were to note other taste impressions.

SMILES: O=C(O)c1ccc(O)cc1O [2,4-DHB, 2,4-Dihydroxybenzoic acid, reference compound]
- Bitter impression (1-10) with [1]: 5.0 ± 1.0
- % reduction in the bitter impression [1]: 3%

SMILES: O=C([O-])c1ccc(O)cc1O.[K+] [2,4-Dihydroxybenzoic acid potassium salt]
- ability to suppress the taste of caffeine [2]: not able to suppress the taste of caffeine

SMILES: COc1ccc(CC(=O)c2c(O)cc(O)cc2O)cc1O [2-(3-hydroxy-4-methoxyphenyl)-1-(2,4,6-trihydroxyphenyl)ethanone]
- taste of the compound itself [3]: tasteless

SMILES: COc1cc(CC(=O)c2c(O)cc(O)cc2O)ccc1O [Compound 1, 2-(4-Hydroxy-3-methoxyphenyl)-1-(2,4,6-trihydroxyphenyl)-ethanone]
- Bitter impression (1-10) with [1]: 3.8 ± 0.9
- % reduction in the bitter impression [1]: 23%

SMILES: COc1cc(CC(=O)c2ccc(O)cc2O)ccc1O [Compound 2, 1-(2,4-Dihydroxyphenyl)-2-(4-hydroxy-3-methoxyphenyl)-ethanone]
- Sweet impresssion (1-10) with ([4]; 5% sucrose plus 100 ppm substance, standard deviations given as error): 5.9 ± 1.5
- % enhancement of the sweet impression ([4]; 5% sucrose, 100 ppm substance, calculated from average ratings): 18%
- number of testers who found the sample with compound sweeter ([5]; of 16 testers, 4 found sample 1 sweeter, 2 found both equally sweet): 10
- further taste impression noted ([5]; sample 2 (200 ppm compound)): sticky
- preference of testers ([5]; sample 2 (200 ppm compound) versus sample 1): preferred to sample 1 by the majority of testers
- enhancement of the sweetness impression ([5]; sample 2 (200 ppm compound) versus sample 1 in yoghurt with 5% sugar): 18%
- average sweetness impression rating (0 to 10) ([5]; sample 2: yoghurt 0.1% fat, 5% sugar, 200 ppm compound, sample 1 without compound rated 4.1): 4.9
- Bitter impression (1-10) with [1]: 4.3 ± 0.8
- % reduction in the bitter impression [1]: 10%
